Earlier results as cited in paper PMC10651166 (Journal of acquired immune deficiency syndromes (1999), 2023).
Converted amounts (≈) assume the structure as drawn.

System: wild-type virus (HIV)
Details: protein-adjusted

Structure (SMILES): CC(C)CN(C[C@@H](O)[C@H](Cc1ccccc1)NC(=O)O[C@H]1CO[C@H]2OCC[C@H]21)S(=O)(=O)c1ccc(N)cc1 [Darunavir]
- EC50: 0.055 µg/mL (≈ 0.1 µM)
